Where a name gives a salt, the structure may show the parent alone.
Tested on: HCT 116 cells
Experiment: Viability assay in HCT 116 cells (CellTiter-Glo Luminescent Cell Viability Assay)
Assay type: cell-based
Settings: HCT 116 human colon carcinoma cells, 5 days (120 h) incubation, 10 concentrations 30 μM to 0.0015 μM, ATP luminescence
Method: Viability Assay in HCT 116 Cells
A viability assay was performed using the CellTiter-Glo® Luminescent Cell Viability Assay (see Promega Corporation's Technical Bulletin No. 288, pp. 1-11 [revised February 2004] which is hereby incorporated by reference in its entirety). This assay is a homogeneous method of determining the number of viable cells in culture based on quantitation of the ATP present, an indicator of metabolically active cells. The assay is designed for use with multiwell formats, making it ideal for automated high-throughput screening (HTS), cell proliferation and cytotoxicity assays. The homogeneous assay procedure involves adding a single reagent (containing luciferase, luciferan substrate, and buffer) directly to cells cultured in serum-supplemented medium. Cell washing, removal of medium and multiple pipetting steps are not required. The system detects as few as 15 cells/well in a 384-well format in 10 minutes after adding reagent and mixing.
The homogeneous “add-mix-measure” format results in cell lysis and generation of a luminescent signal proportional to the amount of ATP present. The amount of ATP is directly proportional to the number of cells present in culture. The above-referenced assay generates a “glow-type” luminescent signal, produced by the luciferase reaction, which has a half-life generally greater than five hours, depending on cell type and medium used. The extended half-life eliminates the need to use reagent injectors and provides flexibility for continuous or batch mode processing of multiple plates. The unique homogeneous format avoids errors that may be introduced by other ATP measurement methods that require multiple steps.
HCT 116 cells (human colon carcinoma, ATCC-No. CCl-247) were cultivated in RPMI 1640 medium with GlutaMAX™ I (cell culture media that contains L-Alanyl-L-Glutamine [a stabilized form/source of L-Glutamine] from Invitrogen, Cat-No. 61870-010), 5% Fetal Calf Serum (FCS, Sigma Cat-No. F4135 (FBS)); 100 Units/ml penicillin/100 μg/ml streptomycin (=Pen/Strep from Invitrogen Cat. No. 15140). For the assay the cells were seeded in 384 well plates, 1000 cells per well, in the same medium. The next day the test compounds were added in various concentrations ranging from 30 μM to 0.0015 μM (10 concentrations, 1:3 diluted). After 5 days the viability assay was performed according to the instructions of the manufacturer. In brief: the cell-plate was equilibrated to room temperature for approximately 30 minutes and then the reagent (containing luciferase, luciferan substrate, and buffer) was added. The contents were carefully mixed for 15 minutes to induce cell lysis. After 45 minutes the luminescent signal was measured in Victor 2, (scanning multiwell spectrophotometer, Wallac).
1st. Day: • Medium: RPMI 1640 with GlutaMAX™ I (Invitrogen, Cat-No. 61870), 5% FCS (Sigma Cat.-No. F4135), Pen/Strep (Invitrogen, Cat No. 15140). • HCT116 (ATCC-No. CCl-247): 1000 cells in 60 μl per well of 384 well plate (Greiner 781098, μClear-plate white) • After seeding incubate plates 24 h at 37° C., 5% CO2
2nd. Day: Induction (Treatment with Compounds, 10 Concentrations):
In order to achieve a final concentration of 30 μM as highest concentration 3.5 μl of 10 mM compound stock solution were added directly to 163 μl media. Then step e) of the dilution procedure described below, was followed.

## O=C(NS(=O)(=O)c1ccc(Oc2ccccc2)nc1)c1ccc(Cl)cc1F [Example 1-20, 6-Phenoxy-pyridine-3-sulfonic acid 4-chloro-2-fluoro-benzoylamide; sodium salt]
  IC50: 1 to 16 µM

## O=C(NS(=O)(=O)c1ccc(N2CCSCC2)nc1)c1ccc(F)cc1Cl [Example 1-68, 6-Thiomorpholin-4-yl-pyridine-3-sulfonic acid 2-chloro-4-fluoro-benzoylamide]
  IC50: 1 to 16 µM

## CCCCN(CC)c1ccc(S(=O)(=O)NC(=O)c2ccc(Cl)cc2C(F)(F)F)cn1 [Example 1-59, 6-(Butyl-ethyl-amino)-pyridine-3-sulfonic acid 4-chloro-2-trifluoromethyl-benzoylamide; ammonium salt]
  IC50: 1 to 16 µM

## O=C(NS(=O)(=O)c1ccc(Oc2ccccc2)nc1)c1ccc(C(F)(F)F)cc1F [Example 1-15, 6-Phenoxy-pyridine-3-sulfonic acid 2-fluoro-4-trifluoromethyl-benzoylamide; sodium salt]
  IC50: 1 to 16 µM

## O=C(NS(=O)(=O)c1cnc(Cl)c(Br)c1)c1ccc(Cl)cc1Br [Example 1-8, 5-Bromo-6-chloro-pyridine-3-sulfonic acid 2-bromo-4-chloro-benzoylamide; sodium salt]
  IC50: 1 to 16 µM

## COc1cc(Cl)ccc1C(=O)NS(=O)(=O)c1ccc(N2CCSCC2)nc1 [Example 1-47, 6-Thiomorpholin-4-yl-pyridine-3-sulfonic acid 4-chloro-2-methoxy-benzoylamide]
  IC50: 1 to 16 µM

## O=C(NS(=O)(=O)c1ccc(N2CCOCC2)nc1)c1ccc(F)cc1Cl [Example 1-10, 6-Morpholin-4-yl-pyridine-3-sulfonic acid 2-chloro-4-fluoro-benzoylamide; sodium salt]
  IC50: 1 to 16 µM

## Cc1ccc(C(=O)NS(=O)(=O)c2ccc(Oc3ccccc3)nc2)c(Br)c1 [Example 1-40, 6-Phenoxy-pyridine-3-sulfonic acid 2-bromo-4-methyl-benzoylamide; sodium salt]
  IC50: 1 to 16 µM

## Cc1cc(Cl)ccc1C(=O)NS(=O)(=O)c1ccc(N2CCOCC2)nc1 [Example 1-2, 6-Morpholin-4-yl-pyridine-3-sulfonic acid 4-chloro-2-methyl-benzoylamide; sodium salt]
  IC50: 5.32 µM

## O=C(NS(=O)(=O)c1cccnc1)c1ccc(Cl)cc1Cl [Example 1-24, Pyridine-3-sulfonic acid 2,4-dichloro-benzoylamide; sodium salt]
  IC50: 3.17 µM

## O=C(NS(=O)(=O)c1ccc(N2CCSCC2)nc1)c1ccc(Cl)cc1C(F)(F)F [Example 1-56, 6-Thiomorpholin-4-yl-pyridine-3-sulfonic acid 4-chloro-2-trifluoromethyl-benzoylamide; ammonium salt]
  IC50: 1 to 16 µM

## O=C(NS(=O)(=O)c1ccc(N2CCCCCC2)nc1)c1ccc(Cl)cc1Cl [Example 1-69, 6-Azepan-1-yl-pyridine-3-sulfonic acid 2,4-dichloro-benzoylamide]
  IC50: 1 to 16 µM

## CC1CCCN(c2ccc(S(=O)(=O)NC(=O)c3ccc(Cl)cc3C(F)(F)F)cn2)C1 (centres unmarked) [Example 1-51, 3-Methyl-3,4,5,6-tetrahydro-2H-[1,2′]bipyridinyl-5′-sulfonic acid 4-chloro-2-trifluoromethyl-benzoylamide; ammonium salt]
  IC50: 1 to 16 µM

## O=C(NS(=O)(=O)c1cccnc1)c1ccc(C(F)(F)F)cc1C(F)(F)F [Example 1-38, Pyridine-3-sulfonic acid 2,4-bis-trifluoromethyl-benzoylamide; sodium salt]
  IC50: 1 to 16 µM

## O=C(NS(=O)(=O)c1cnc(Cl)c(Br)c1)c1ccc(Br)cc1Cl [Example 1-7, 5-Bromo-6-chloro-pyridine-3-sulfonic acid 4-bromo-2-chloro-benzoylamide; sodium salt]
  IC50: 8.48 µM

## Cc1cc(Br)ccc1C(=O)NS(=O)(=O)c1ccc(N2CCOCC2)nc1 [Example 1-3, 6-Morpholin-4-yl-pyridine-3-sulfonic acid 4-bromo-2-methyl-benzoylamide; sodium salt]
  IC50: 1 to 16 µM

## O=C(NS(=O)(=O)c1ccc(N2CCOCC2)nc1)c1ccc(Cl)cc1Br [Example 1-29, 6-Morpholin-4-yl-pyridine-3-sulfonic acid 2-bromo-4-chloro-benzoylamide; sodium salt]
  IC50: 1 to 16 µM

## C[C@@H]1CN(c2ccc(S(=O)(=O)NC(=O)c3ccc(Cl)cc3C(F)(F)F)cn2)C[C@H](C)O1 [Example 1-72, 6-((2R,6S)-2,6-Dimethyl-morpholin-4-yl)-pyridine-3-sulfonic acid 4-chloro-2-trifluoromethyl-benzoylamide]
  IC50: 1 to 16 µM

## CCCN(C)c1ccc(S(=O)(=O)NC(=O)c2ccc(F)cc2Cl)cn1 [Example 1-63, 6-(Methyl-propyl-amino)-pyridine-3-sulfonic acid 2-chloro-4-fluoro-benzoylamide]
  IC50: 1 to 16 µM

## O=C(NS(=O)(=O)c1cnc(Cl)c(Br)c1)c1ccc(Cl)cc1Cl [Example 1-13, 5-Bromo-6-chloro-pyridine-3-sulfonic acid 2,4-dichloro-benzoylamide; sodium salt]
  IC50: 1 to 16 µM

## O=C(NS(=O)(=O)c1ccc(N2CCCCCC2)nc1)c1ccc(Cl)cc1C(F)(F)F [Example 1-49, 6-Azepan-1-yl-pyridine-3-sulfonic acid 4-chloro-2-trifluoromethyl-benzoylamide]
  IC50: 1 to 16 µM

## O=C(NS(=O)(=O)c1cnc(Cl)c(Br)c1)c1ccc(C(F)(F)F)cc1C(F)(F)F [Example 1-18, 5-Bromo-6-chloro-pyridine-3-sulfonic acid 2,4-bis-trifluoromethyl-benzoylamide; sodium salt]
  IC50: 1 to 16 µM

## O=C(NS(=O)(=O)c1ccc(Oc2ccccc2)nc1)c1ccc(F)cc1C(F)(F)F [Example 1-21, 6-Phenoxy-pyridine-3-sulfonic acid 4-fluoro-2-trifluoromethyl-benzoylamide; sodium salt]
  IC50: 1 to 16 µM

## O=C(NS(=O)(=O)c1ccc(N2CCSCC2)nc1)c1ccc(F)cc1C(F)(F)F [Example 1-80, 6-Thiomorpholin-4-yl-pyridine-3-sulfonic acid 4-fluoro-2-trifluoromethyl-benzoylamide]
  IC50: 1 to 16 µM

## O=C(NS(=O)(=O)c1ccc(N2CCSCC2)nc1)c1ccc(Cl)cc1Cl [Example 1-71, 6-Thiomorpholin-4-yl-pyridine-3-sulfonic acid 2,4-dichloro-benzoylamide]
  IC50: 1 to 16 µM

## O=C(NS(=O)(=O)c1ccc(Oc2ccccc2)nc1)c1ccc(Br)cc1Cl [Example 1-28, 6-Phenoxy-pyridine-3-sulfonic acid 4-bromo-2-chloro-benzoylamide; sodium salt]
  IC50: 1 to 16 µM

## Cc1ccc(C(=O)NS(=O)(=O)c2ccc(N3CCOCC3)nc2)c(Br)c1 [Example 1-4, 6-Morpholin-4-yl-pyridine-3-sulfonic acid 2-bromo-4-methyl-benzoylamide; sodium salt]
  IC50: 1 to 16 µM

## O=C(NS(=O)(=O)c1ccc(N2CCOCC2)nc1)c1ccc(Cl)cc1Cl [Example 1-1, 6-morpholin-4-yl-pyridine-3-sulfonic acid 2,4-dichloro-benzoylamide; sodium salt]
  IC50: 1 to 16 µM

## O=C(NS(=O)(=O)c1ccc(Oc2ccccc2)nc1)c1ccc(Cl)cc1Br [Example 1-33, 6-Phenoxy-pyridine-3-sulfonic acid 2-bromo-4-chloro-benzoylamide; sodium salt]
  IC50: 1 to 16 µM

## CCCN(CCC)c1ccc(S(=O)(=O)NC(=O)c2ccc(Cl)cc2C(F)(F)F)cn1 [Example 1-54, 6-Dipropylamino-pyridine-3-sulfonic acid 4-chloro-2-trifluoromethyl-benzoylamide]
  IC50: 1 to 16 µM

## O=C(NS(=O)(=O)c1ccc(N2CCCCCC2)nc1)c1ccc(F)cc1C(F)(F)F [Example 1-78, 6-Azepan-1-yl-pyridine-3-sulfonic acid 4-fluoro-2-trifluoromethyl-benzoylamide]
  IC50: 1 to 16 µM

## COc1cc(Cl)ccc1C(=O)NS(=O)(=O)c1ccc(N2CCC(OC)CC2)nc1 [Example 1-45, 4-Methoxy-3,4,5,6-tetrahydro-2H-[1,2′]bipyridinyl-5′-sulfonic acid 4-chloro-2-methoxy-benzoylamide; sodium salt]
  IC50: 1 to 16 µM
